Experimental findings from PMC9851200, “Multiparameter phenotypic screening for endogenous TFEB and TFE3 translocation identifies novel chemical series modulating lysosome function” (Autophagy, 2022) are described below.

Common to all, as to format: binding
For assay [1], the target named is kinases (KINOMEscan panel) (Homo sapiens, UniProt Q04912). As to conditions: MST1R; NEW KINOMEscan.
Assay [2] concerns the target T1, kinases (KINOMEscan panel) (Homo sapiens, UniProt Q9NWZ3).
T1 sequence (Q9NWZ3 1-460): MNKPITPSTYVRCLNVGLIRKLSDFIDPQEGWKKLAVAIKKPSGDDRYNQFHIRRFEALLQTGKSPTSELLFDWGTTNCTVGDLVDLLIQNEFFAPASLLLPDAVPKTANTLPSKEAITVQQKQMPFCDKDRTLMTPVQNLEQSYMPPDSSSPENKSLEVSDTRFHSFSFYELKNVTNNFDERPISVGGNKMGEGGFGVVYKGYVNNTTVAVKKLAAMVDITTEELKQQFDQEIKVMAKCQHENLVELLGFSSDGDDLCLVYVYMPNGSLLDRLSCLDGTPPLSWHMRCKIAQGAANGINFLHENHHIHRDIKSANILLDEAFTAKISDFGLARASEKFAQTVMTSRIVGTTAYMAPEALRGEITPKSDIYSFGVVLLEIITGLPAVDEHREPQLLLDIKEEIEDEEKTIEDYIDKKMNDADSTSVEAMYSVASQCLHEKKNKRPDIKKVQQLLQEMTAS
As to conditions: IRAK4; NEW KINOMEscan.

Assay [3] has as its target kinases (KINOMEscan panel) (Homo sapiens, UniProt Q9H1R3). To be noted: MYLK2; NEW KINOMEscan.
Assay [4] concerns the target T2, kinases (KINOMEscan panel) (Homo sapiens, UniProt Q9NRP7).
T2 sequence (Q9NRP7 1-1315): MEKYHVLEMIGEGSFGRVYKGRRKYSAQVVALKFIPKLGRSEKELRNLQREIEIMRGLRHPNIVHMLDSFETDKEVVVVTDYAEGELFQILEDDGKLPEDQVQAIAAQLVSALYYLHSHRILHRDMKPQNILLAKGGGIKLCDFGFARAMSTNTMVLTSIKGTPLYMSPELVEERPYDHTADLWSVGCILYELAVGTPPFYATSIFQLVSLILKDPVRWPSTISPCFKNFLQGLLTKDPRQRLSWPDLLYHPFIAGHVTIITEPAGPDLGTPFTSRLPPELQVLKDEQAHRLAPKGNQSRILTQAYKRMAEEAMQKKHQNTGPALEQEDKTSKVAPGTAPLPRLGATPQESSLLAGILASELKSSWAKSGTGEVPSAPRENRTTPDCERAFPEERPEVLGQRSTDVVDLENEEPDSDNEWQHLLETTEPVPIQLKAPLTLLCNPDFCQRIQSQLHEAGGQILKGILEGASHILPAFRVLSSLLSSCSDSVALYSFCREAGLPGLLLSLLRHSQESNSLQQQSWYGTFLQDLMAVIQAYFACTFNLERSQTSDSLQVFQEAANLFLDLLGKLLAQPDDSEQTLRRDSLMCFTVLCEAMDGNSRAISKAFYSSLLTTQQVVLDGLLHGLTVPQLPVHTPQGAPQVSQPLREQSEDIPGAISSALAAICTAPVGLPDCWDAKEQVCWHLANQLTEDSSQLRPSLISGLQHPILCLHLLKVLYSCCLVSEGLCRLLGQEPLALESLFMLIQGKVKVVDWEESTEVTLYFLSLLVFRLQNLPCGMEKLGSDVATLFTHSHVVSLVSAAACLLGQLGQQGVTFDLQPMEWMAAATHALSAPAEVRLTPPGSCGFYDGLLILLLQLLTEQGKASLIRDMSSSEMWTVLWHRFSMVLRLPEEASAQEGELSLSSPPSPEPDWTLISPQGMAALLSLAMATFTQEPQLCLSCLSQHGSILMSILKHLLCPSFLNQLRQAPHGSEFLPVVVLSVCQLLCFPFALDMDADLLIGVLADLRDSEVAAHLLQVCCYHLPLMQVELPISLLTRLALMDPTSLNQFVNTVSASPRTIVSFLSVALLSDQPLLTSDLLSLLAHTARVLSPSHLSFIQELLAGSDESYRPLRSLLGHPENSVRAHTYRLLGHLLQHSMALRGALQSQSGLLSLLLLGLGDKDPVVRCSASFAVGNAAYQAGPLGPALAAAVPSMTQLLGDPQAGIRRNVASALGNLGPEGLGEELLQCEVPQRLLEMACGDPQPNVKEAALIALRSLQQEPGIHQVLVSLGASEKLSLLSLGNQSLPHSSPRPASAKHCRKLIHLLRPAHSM
As to conditions: STK36; NEW KINOMEscan.

Assay [5] deals with kinases (KINOMEscan panel) (Homo sapiens, UniProt P53667). To be noted: kinase LIMK1; NEW KINOMEscan.
For assay [6], the target named is kinases (KINOMEscan panel) (Homo sapiens, UniProt Q7KZI7). To be noted: MARK2; NEW KINOMEscan.
Assay [7] addresses kinases (KINOMEscan panel) (Homo sapiens, UniProt P22694). As to conditions: PRKACB; NEW KINOMEscan.
For assay [8], the target named is kinases (KINOMEscan panel) (Homo sapiens, UniProt Q13627). To be noted: NEW KINOMEscan.
Assay [9] has as its target T3, kinases (KINOMEscan panel) (Homo sapiens, UniProt Q9Y616).
T3 sequence (Q9Y616 1-596): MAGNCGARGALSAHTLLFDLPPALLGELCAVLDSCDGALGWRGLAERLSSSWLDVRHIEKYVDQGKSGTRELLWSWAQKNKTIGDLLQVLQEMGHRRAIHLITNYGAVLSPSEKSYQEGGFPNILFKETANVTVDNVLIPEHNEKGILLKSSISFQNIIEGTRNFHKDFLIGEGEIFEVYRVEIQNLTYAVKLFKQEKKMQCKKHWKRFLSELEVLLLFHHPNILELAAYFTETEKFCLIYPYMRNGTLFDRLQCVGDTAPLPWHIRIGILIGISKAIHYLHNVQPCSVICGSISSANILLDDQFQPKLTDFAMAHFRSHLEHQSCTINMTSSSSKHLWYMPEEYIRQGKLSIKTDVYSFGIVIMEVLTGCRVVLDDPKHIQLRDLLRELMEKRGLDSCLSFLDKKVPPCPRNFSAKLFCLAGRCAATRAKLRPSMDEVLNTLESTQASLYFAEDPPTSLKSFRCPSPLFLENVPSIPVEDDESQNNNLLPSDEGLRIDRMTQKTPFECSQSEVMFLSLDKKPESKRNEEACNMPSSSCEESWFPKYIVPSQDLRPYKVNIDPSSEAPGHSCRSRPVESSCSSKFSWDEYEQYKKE
To be noted: IRAK3; NEW KINOMEscan.

The target in assay [10] is kinases (KINOMEscan panel) (Homo sapiens, UniProt P10721). As to conditions: NEW KINOMEscan.
Chain of kinases (KINOMEscan panel) (Homo sapiens, UniProt P10721) (P10721 26-976): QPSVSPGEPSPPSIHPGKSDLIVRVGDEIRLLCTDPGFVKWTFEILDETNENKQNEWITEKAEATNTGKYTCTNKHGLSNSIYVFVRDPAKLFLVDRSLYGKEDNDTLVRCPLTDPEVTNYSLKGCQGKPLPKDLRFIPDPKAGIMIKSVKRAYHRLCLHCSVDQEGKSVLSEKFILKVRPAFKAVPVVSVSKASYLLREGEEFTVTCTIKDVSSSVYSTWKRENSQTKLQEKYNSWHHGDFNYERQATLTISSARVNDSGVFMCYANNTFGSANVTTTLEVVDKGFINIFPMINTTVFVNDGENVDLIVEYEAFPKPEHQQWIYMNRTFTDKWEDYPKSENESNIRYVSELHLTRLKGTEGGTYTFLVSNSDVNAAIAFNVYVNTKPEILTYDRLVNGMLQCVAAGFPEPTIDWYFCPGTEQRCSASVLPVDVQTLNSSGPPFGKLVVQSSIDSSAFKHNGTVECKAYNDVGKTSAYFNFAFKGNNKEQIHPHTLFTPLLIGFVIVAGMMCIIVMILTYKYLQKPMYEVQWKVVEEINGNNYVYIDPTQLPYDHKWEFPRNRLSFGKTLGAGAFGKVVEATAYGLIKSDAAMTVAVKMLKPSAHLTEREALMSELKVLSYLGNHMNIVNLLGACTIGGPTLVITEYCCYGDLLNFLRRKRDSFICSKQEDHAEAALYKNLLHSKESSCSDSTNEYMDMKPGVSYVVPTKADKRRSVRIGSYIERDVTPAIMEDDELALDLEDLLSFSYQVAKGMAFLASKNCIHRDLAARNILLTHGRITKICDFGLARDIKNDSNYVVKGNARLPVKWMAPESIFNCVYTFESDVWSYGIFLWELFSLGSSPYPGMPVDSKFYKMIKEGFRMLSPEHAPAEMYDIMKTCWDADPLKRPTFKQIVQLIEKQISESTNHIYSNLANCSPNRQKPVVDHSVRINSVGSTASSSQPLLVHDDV

Chain of kinases (KINOMEscan panel) (Homo sapiens, UniProt Q04912) (Q04912 25-1400): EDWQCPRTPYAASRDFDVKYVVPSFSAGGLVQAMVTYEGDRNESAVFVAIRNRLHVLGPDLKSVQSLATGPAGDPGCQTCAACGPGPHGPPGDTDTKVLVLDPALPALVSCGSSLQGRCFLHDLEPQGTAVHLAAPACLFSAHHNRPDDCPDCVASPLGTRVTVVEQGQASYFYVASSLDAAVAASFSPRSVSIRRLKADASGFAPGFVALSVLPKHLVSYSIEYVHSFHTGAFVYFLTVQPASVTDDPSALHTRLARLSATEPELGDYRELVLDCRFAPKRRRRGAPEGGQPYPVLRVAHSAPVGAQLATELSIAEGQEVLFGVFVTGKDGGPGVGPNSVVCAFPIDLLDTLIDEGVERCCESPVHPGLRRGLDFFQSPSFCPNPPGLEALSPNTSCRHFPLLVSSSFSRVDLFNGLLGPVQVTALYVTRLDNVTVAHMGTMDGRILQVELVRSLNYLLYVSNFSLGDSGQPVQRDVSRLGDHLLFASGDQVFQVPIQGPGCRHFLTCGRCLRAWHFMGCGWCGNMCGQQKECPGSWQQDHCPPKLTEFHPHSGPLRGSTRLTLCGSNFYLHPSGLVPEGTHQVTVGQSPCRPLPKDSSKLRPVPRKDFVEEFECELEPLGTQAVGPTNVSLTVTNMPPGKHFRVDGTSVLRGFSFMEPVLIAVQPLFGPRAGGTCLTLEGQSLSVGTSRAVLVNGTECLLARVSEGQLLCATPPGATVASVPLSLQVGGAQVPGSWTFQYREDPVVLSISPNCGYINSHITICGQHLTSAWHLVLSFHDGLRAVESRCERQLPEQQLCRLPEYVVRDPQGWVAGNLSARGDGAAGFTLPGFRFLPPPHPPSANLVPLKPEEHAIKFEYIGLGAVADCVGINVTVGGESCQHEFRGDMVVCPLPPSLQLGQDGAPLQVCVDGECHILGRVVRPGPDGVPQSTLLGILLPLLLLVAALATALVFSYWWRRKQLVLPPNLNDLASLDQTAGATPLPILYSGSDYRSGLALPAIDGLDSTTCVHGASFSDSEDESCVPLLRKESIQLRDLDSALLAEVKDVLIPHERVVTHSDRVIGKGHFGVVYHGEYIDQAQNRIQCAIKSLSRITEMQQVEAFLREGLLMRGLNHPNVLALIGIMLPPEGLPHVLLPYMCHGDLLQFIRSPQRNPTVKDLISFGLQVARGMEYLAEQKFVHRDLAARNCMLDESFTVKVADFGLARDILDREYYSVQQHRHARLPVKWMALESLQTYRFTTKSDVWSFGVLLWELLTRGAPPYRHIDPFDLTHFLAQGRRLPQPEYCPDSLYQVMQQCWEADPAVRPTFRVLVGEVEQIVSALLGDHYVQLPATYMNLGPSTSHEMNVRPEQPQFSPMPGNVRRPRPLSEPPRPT
Chain of kinases (KINOMEscan panel) (Homo sapiens, UniProt Q7KZI7) (Q7KZI7 whole entry): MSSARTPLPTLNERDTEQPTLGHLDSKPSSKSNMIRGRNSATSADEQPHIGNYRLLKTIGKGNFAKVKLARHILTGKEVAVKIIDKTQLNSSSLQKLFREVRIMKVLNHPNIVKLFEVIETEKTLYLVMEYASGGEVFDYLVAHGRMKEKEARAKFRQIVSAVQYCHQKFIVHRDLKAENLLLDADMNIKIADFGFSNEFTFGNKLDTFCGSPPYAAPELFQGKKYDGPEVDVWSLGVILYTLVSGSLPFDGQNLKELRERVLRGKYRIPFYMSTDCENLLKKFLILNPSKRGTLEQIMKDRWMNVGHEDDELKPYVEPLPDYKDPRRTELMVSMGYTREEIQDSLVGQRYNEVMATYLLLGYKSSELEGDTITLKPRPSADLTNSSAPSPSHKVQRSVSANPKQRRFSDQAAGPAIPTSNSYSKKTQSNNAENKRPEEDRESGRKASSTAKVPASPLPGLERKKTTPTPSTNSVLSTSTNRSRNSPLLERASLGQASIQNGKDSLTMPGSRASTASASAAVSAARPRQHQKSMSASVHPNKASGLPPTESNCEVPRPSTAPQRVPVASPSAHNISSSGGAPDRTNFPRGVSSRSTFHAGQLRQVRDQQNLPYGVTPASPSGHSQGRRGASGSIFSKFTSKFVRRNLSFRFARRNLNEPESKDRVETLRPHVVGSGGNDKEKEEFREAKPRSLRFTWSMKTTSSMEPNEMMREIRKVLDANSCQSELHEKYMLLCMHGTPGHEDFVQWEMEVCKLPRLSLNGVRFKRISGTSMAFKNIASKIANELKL
Chain of kinases (KINOMEscan panel) (Homo sapiens, UniProt P53667) (P53667 whole entry): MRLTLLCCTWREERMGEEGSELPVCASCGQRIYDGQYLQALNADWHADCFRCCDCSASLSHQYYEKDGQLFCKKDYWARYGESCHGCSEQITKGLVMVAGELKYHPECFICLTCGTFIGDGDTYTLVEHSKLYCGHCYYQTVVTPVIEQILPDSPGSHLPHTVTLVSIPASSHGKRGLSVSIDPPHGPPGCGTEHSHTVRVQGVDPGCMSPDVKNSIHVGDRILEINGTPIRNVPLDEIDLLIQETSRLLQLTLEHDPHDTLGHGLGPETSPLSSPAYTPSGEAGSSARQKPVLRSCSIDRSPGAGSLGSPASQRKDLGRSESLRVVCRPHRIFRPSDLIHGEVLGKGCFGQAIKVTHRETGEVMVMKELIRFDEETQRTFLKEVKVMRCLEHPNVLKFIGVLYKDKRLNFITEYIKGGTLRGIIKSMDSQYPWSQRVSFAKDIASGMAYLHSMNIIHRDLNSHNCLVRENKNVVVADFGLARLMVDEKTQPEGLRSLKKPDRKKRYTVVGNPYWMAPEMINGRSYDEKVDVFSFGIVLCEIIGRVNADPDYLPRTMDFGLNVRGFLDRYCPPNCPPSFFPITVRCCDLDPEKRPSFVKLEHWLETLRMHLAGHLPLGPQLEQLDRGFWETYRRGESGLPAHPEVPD
Chain of kinases (KINOMEscan panel) (Homo sapiens, UniProt Q9H1R3) (Q9H1R3 whole entry): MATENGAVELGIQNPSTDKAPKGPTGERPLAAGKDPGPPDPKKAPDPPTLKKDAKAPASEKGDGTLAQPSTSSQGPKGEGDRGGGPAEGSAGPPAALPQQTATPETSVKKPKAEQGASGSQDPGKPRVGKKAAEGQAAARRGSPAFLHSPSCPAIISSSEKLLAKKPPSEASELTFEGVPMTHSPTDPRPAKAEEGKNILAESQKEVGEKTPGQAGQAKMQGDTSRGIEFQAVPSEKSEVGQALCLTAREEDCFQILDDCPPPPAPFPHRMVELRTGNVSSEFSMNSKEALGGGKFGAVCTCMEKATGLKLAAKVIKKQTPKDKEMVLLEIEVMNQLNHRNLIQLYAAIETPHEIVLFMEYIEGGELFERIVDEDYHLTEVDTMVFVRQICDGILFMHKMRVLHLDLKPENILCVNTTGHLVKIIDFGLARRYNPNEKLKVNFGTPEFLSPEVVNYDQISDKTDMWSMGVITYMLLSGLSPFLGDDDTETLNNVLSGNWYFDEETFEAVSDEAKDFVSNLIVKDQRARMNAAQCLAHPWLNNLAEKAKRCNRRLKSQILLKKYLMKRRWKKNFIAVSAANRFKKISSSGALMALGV

As to `Cc1cccc(-c2nc(Nc3ccc4nn(C)cc4c3)c3ccccc3n2)n1` [NK167], the “KINOMEscan MST1R” value in [1] is 0. Moreover, in [2], the “KINOMEscan IRAK4” value was 0. Besides, the “KINOMEscan MYLK2” value in assay [3] was found to be 0. Further, the “KINOMEscan STK36” value in assay [4] came out at 0. For the same compound, the “KINOMEscan LIMK1” value in assay [5] was 0. The “KINOMEscan MARK2” value in assay [6] amounted to 0. Moreover, the “KINOMEscan PRKACB” value in assay [7] stood at 1. In addition, the “KINOMEscan DYRK1A” value in assay [8] turned out to be 0. The “KINOMEscan IRAK3” value in [9] is 0. In [10], the “KINOMEscan KIT-autoinhibited” value is recorded as 1 and the “KINOMEscan KIT” value is 8.

Consider `Cc1cccc(-c2nc(N(C)c3ccc4ncsc4c3)c3ccccc3n2)n1` [NK-161], for which the “KINOMEscan MST1R” value in [1] amounted to 2. In assay [2], the “KINOMEscan IRAK4” value was determined as 0. In assay [3], the “KINOMEscan MYLK2” value worked out at 9. For the same compound, in assay [4], the “KINOMEscan STK36” value is on record as 7. Besides, in [5], the “KINOMEscan LIMK1” value is reported as 0. The “KINOMEscan MARK2” value in [6] came out at 0. Besides, the “KINOMEscan PRKACB” value in assay [7] worked out at 6. Also, the “KINOMEscan DYRK1A” value in [8] amounted to 20. Besides, the “KINOMEscan IRAK3” value in [9] stood at 7. Also, in [10], the “KINOMEscan KIT-autoinhibited” value turned out to be 0 and the “KINOMEscan KIT” value is reported as 5.
